Measurements taken from patent US6893858B2, “Human kcnq5 potassium channel, methods and compositions thereof” (Bristol-Myers Squibb Company, priority 2000, dated 2005).

Biological target: hKCNQ5 (Homo sapiens, UniProt Q9NR82)
Sequence (Q9NR82 36-932): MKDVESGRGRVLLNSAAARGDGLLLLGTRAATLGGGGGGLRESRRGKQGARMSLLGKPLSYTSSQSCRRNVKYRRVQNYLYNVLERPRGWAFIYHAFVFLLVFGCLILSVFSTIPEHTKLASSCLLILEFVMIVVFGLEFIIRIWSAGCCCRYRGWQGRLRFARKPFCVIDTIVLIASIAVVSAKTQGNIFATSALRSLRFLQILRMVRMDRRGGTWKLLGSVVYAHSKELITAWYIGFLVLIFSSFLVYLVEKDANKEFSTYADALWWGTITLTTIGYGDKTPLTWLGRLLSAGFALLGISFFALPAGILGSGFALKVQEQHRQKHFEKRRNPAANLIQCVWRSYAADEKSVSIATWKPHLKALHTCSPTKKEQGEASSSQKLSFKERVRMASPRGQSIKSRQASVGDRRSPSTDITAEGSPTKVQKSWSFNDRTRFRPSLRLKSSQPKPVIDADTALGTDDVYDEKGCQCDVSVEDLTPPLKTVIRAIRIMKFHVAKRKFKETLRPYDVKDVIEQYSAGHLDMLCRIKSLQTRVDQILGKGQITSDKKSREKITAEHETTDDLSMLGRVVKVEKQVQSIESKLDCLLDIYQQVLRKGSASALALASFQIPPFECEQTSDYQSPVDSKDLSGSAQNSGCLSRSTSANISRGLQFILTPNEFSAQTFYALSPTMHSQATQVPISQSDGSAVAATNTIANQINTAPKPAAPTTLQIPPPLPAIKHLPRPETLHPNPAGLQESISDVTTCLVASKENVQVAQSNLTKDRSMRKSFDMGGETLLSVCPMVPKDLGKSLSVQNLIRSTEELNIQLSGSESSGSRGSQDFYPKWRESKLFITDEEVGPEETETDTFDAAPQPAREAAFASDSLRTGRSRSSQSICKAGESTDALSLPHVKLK
Protocol: Frog (Xenopus laevis) oocytes were prepared and injected using standard techniques; each oocyte was injected with approximately 50 nl of hKCNQ5 cRNA. Following injection, oocytes were maintained at 17° C. in ND96 medium comprising (in mM): NaCl, 90; KCl, 1.0; CaCl2, 1.0; MgCl2, 1.0; HEPES, 5.0; pH 7.5. Horse serum (5%) and penicillin/streptomycin (5%) were added to the incubation medium. Recording commenced 2-6 days following mRNA injection. Prior to the start of an experiment, oocytes were placed in a recording chamber and incubated in Modified Barth's Solution (MBS) consisting of (in mM): NaCl, 88; NaHCO3, 2.4; KCl, 1.0; HEPES, 10; MgSO4, 0.82; Ca(NO3)2, 0.33; CaCl2, 0.41; pH 7.5. Oocytes were impaled with electrodes (1-2 MΩ) and standard 2-electrode voltage clamp techniques were employed to record whole-cell membrane currents. Voltage-clamp protocols typically consisted of a series of voltage steps 1-5 second duration, in +10 mV steps from a holding potential of −90 mV to a maximal potential of +40 mV; records were digitized at 5 kHz and stored on a computer using pClamp data acquisition and analysis software (Axon Instruments).

CC[N+](CC)(CC)CC [TEA, tetraethylammonium]
resistance of hKCNQ5 currents to the potassium channel blocker (hKCNQ5 cRNA expressed in Xenopus oocytes, concentrations as high as 30 mM, whole-cell outward currents): largely resistant | blockage of hKCNQ5 outward currents (FIG. 8 legend) (hKCNQ5 expressed in Xenopus oocytes, at high concentrations): resistant to blockage
